The subject of test [1] is Salmonella typhimurium. The test can be described thus: Antimutagenic activity against Salmonella typhimurium TA98 assessed as inhibition of Trp-P-1-induced mutation at 80 nmol/plate measured in presence of S9 fraction by Ames test relative to control. The format is functional, Salmonella enterica subsp. enterica serovar Typhimurium. On the technique in general: In the Ames test, an excess of revertant colonies over the control signals mutagenicity.

A further test is filed under the species Mus musculus. The test can be described thus: Antimutagenic activity against PhIP-induced mutation in ICR mouse assessed as reduction in micronucleated reticulocytes at 0.03 to 0.06% w/w treated prior to PhIP addition measured 24 to 48 hrs post dose by fluorescence microscopic analysis. The format is functional, organism-based.
Test [2] relates to Salmonella typhimurium. In words: Antimutagenic activity against Salmonella typhimurium TA98 assessed as inhibition of Trp-P-1-induced mutation at 100 nmol/plate measured in presence of S9 fraction by Ames test relative to control. The format is functional, Salmonella enterica subsp. enterica serovar Typhimurium.

The source made the active and inactive calls. No cut-off for these calls is given here.

For the compound `COc1ccc(-c2cc(=O)c3c(OC)c(OC)c(OC)c(OC)c3o2)cc1OC` [NOBILETIN], the “inhibition (INH)” value with Salmonella typhimurium [1] worked out at 56%.
Regarding `C=C(C)[C@@H]1CC=C(C)[C@H](CC[C@H]2C(=C)CC[C@H]3C(C)(C)C(=O)CC[C@]23C)[C@@]1(C)CCC(=O)O`, the result in the test listed under Mus musculus was Active.
Consider `C=C(C)[C@@H]1CC=C(C)[C@H](CC[C@H]2C(=C)CC[C@H]3C(C)(C)[C@@H](O)CC[C@]23C)[C@@]1(C)CCC(=O)OCC` [ETHYL LANSIOLATE], for which the “inhibition (INH)” value in the test with Salmonella typhimurium [2] worked out at 7.9%.
Still for that read-out and setting: the value for `C=C(C)[C@@H]1CC=C(C)[C@H](CC[C@H]2C(=C)CC[C@H]3C(C)(C)[C@@H](O)CC[C@]23C)[C@@]1(C)CCC(=O)OC` was 29.5%; that for `C=C(C)[C@@H]1CC=C(C)[C@H](CC[C@H]2C(=C)CC[C@H]3C(C)(C)[C@@H](O)CC[C@]23C)[C@@]1(C)CCC(=O)O` was 73.8%.
